Assay results from patent US9765085B2, “SHIP1 modulators and methods related thereto” (Aquinox Pharmaceuticals (Canada) Inc., priority 2013, dated 2017).

What follows are compounds tested against T1, His-hSHIP1 enzyme (Homo sapiens, UniProt Q92835) (assay: His-hSHIP1 activity (phosphatase assay, IP4 substrate, Biomol Green)). Settings: ratio of initial velocities (IP4 25/IP4 250 μM final) compared with a reference SHIP1 activator; 37° C.
T1 construct: His
T1 sequence (Q92835 1-1189): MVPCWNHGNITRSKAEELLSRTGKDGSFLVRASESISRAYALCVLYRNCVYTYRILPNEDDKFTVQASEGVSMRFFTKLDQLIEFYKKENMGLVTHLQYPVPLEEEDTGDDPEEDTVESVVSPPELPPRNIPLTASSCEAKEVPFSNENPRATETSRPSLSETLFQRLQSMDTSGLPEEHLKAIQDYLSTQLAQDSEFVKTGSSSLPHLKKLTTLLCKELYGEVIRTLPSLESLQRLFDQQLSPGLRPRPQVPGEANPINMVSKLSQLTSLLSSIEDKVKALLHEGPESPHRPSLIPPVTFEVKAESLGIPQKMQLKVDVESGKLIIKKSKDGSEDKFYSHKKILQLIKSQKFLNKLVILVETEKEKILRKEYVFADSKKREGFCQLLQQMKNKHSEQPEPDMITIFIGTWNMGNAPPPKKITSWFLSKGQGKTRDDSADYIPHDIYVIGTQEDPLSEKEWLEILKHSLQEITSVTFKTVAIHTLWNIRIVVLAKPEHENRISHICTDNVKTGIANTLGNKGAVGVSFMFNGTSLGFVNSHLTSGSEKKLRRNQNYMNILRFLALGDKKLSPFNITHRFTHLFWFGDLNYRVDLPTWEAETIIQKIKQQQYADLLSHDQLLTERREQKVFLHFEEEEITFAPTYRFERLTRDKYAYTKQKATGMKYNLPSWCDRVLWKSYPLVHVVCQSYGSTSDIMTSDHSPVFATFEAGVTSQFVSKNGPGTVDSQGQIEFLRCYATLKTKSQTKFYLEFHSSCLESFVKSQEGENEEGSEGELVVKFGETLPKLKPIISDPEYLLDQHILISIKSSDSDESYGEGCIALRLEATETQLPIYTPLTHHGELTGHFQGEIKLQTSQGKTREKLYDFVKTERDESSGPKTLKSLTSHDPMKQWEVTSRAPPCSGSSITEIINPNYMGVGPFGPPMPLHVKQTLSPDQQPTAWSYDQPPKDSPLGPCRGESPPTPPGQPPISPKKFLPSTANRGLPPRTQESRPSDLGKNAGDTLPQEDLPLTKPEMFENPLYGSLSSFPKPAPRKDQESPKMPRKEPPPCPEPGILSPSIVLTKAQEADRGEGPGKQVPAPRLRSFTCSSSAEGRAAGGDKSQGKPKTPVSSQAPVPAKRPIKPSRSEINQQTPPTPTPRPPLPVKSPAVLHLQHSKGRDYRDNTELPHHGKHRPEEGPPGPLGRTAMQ
Type: biochemical
Design: key: +++: higher than reference or reference - 15%; ++: reference - 16% to reference - 30%; +: reference - 31% or lower; −: inhibitor
Method: Test compounds are dissolved in 95% ethanol to form stock solutions. Before screening, the stock solutions are diluted with Phosphatase Assay Buffer (20 mM Tris-HCL, 10 mM MgCl2 pH 7.5, 0.02% Tween 20) to form working assay solutions that contain 10% ethanol. The assay is carried out on 96-well microtiter plates using a modified procedure of that reported by Ong et al., Blood 110, 1942-1949, 2007 and Yang et al., Org Lett 7, 1073-1076, 2005, both of which references are incorporated herein by reference in their entirety.
A master mix is prepared that contains 50 μL of His-hSHIP1 enzyme (0.4-1.6 ng/μL final), 25 μL of the substrate, IP4 (25 or 250 μM final), and 50 μL of test compound in 3.3% ethanol ([…]). Control blanks are also prepared by replacing His-hSHIP1 enzyme, IP4, or test compounds with Phosphate Assay Buffer. […] Each reaction component is preincubated at 37° C. for 30 min before adding to a 96-well microtiter plate. The master mix is then incubated at 37° C. At time 0, 20, 25 and 30 min, 25 μL of the master mix is removed and transferred to a new 96-well microtiter plate, to which 100 μL of Biomol Green Reagent is added to stop the reaction. After incubating the mixture for 20 min at room temperature for color development, the absorbance is read with SpectraMax Plus 96-well plate reader at a wavelength of 650 nm. Phosphate released is plotted against time to calculate the initial velocities (i.e., slope of the graph) at each IP4 concentration. The initial velocities are baseline corrected and the ratio of initial velocities (IP425/IP4250) is calculated and used to rate the test compounds.
The compound numbers in Table 2 correspond to the compound numbers in Table 1 above. Scoring of the compound is expressed as follows: […]

| Scoring (Initial Velocity Ratio) | Compound |
| --- | --- |
| ++ | C[C@@H]1CC[C@@]2(OC1)O[C@H]1C[C@H]3[C@H](CO)[C@@H]([C@@]4(C)CC[C@H](O)C[C@@H]4CO)CC[C@]3(C)[C@H]1[C@@H]2C [compound 29, (1S,3S,4R)-3-(hydroxymethyl)-4-((2R,3S,3aR,3bS,5′R,6S,7R,7aS,8aS)-7-(hydroxymethyl)-3,3b,5′-trimethyltetradecahydrospiro[indeno[2,1-b]furan-2,2′-pyran]-6-yl)-4-methylcyclohexanol] |
| + | C[C@]1([C@H]2CC[C@]3(C)C(c4ccco4)=CC[C@H]3[C@@H]2CO)CC[C@H](O)C[C@@H]1CO [compound 30, (1S,3S,4R)-4-((3aS,6S,7R,7aS)-3-(furan-2-yl)-7-(hydroxymethyl)-3a-methyl-3a,4,5,6,7,7a-hexahydro-1H-inden-6-yl)-3-(hydroxymethyl)-4-methylcyclohexanol] |
| ++ | C=C1CC[C@H]2[C@H](CO)[C@@H]([C@@]3(C)CC[C@H](NC(C)=O)C[C@@H]3CO)CC[C@]12C [compound 32, N-((1S,3S,4R)-3-(hydroxymethyl)-4-((3aS,4R,5S,7aS)-4-(hydroxymethyl)-7a-methyl-1-methyleneoctahydro-1H-inden-5-yl)-4-methylcyclohexyl)acetamide] |
| + | C[C@]1([C@H]2CC[C@]3(C)c4[nH]ncc4C[C@H]3[C@@H]2CO)CC[C@H](O)C[C@@H]1CO [compound 33, (1S,3S,4R)-3-(hydroxymethyl)-4-((4aS,5R,6S,8aS)-5-(hydroxymethyl)-8a-methyl-1,4,4a,5,6,7,8,8a-octahydroindeno[1,2-c]pyrazol-6-yl)-4-methylcyclohexanol] |
| + | C[C@]1([C@H]2CC[C@@]3(C)[C@@H](CC[C@@]3(O)c3cccs3)[C@@H]2CO)CC[C@H](O)C[C@@H]1CO [compound 34, (1S,3aS,4R,5S,7aS)-5-((1R,2S,4S)-4-hydroxy-2-(hydroxymethyl)-1-methylcyclohexyl)-4-(hydroxymethyl)-7a-methyl-1-(thiophen-2-yl)octahydro-1H-inden-1-ol] |
| ++ | C[C@]1([C@H]2CC[C@@]3(C)[C@@H](CC[C@@]3(O)c3ccccn3)[C@@H]2CO)CC[C@H](O)C[C@@H]1CO [compound 36, (1S,3aS,4R,5S,7aS)-5-((1R,2S,4S)-4-hydroxy-2-(hydroxymethyl)-1-methylcyclohexyl)-4-(hydroxymethyl)-7a-methyl-1-(pyridin-2-yl)octahydro-1H-inden-1-ol] |
| + | C[C@]1([C@H]2CCC3=C(C[C@@H](O)[C@@]3(C)c3ccccc3)[C@@H]2CO)CC[C@H](O)C[C@@H]1CO [compound 37, (1S,2R,4R,5S)-5-((1R,2S,4S)-4-hydroxy-2-(hydroxymethyl)-1-methylcyclohexyl)-4-(hydroxymethyl)-1-methyl-1-phenyl-2,3,4,5,6,7-hexahydro-1H-inden-2-ol] |
| ++ | (1S,3S,4R)-4-((2R,3S,3aR,3bS,5′R,6S,7R,7aS,8aS)-7-(aminomethyl)-3,3b,5′-trimethyltetradecahydrospiro[indeno[2,1-b]furan-2,2′-pyran]-6-yl)-3-(hydroxymethyl)-4-methylcyclohexanol acetate [compound 14] |
